The numbers were not newly measured in patent US10485783B1, “Methods and compositions for reducing or eliminating symptoms of withdrawal from drugs and alcohol” (Longevity Healthcare Center, priority 2018, dated 2019), which cites them from elsewhere.

Data set [1] deals with GABAA and GABAB receptors. The settings on record: synergistic with a GABAA receptor agonist, blocked by a GABAB receptor agonist.
The conditions of data set [2]: in vitro.
In data set [3] the test system is rats self-administering morphine. The settings on record: morphine 2 hours per day on 10 consecutive days, then ascorbic acid intraperitoneally.

In the case of `CNC1(c2ccccc2Cl)CCCCC1=O` (stereo not shown) [Ketamine], the anti-depressive activity result in data set [1] is “anti-depressive activity”.
Consider `O=C1O[C@H]([C@@H](O)CO)C(O)=C1O` [ascorbic acid], for which the “concentration at which ascorbic acid generates free radicals (pro-oxidant)” value in data set [2] was 3 to 5 mM. Besides, the anti-depressive activity result in data set [1] was “anti-depressive activity”. Also, in data set [3], the “level of morphine self-administration (number of lever pressings) and number and intensity of withdrawal symptoms” value was “decrease”.
